Data reported in EP4603105A1, “PHARMACEUTICAL COMPOSITION CONTAINING CYCLIC COMPOUND HAVING SELECTIVE KRAS INHIBITORY EFFECT AGAINST HRAS AND NRAS” (CHUGAI SEIYAKU KABUSHIKI KAISHA, priority 2022, dated 2024).
pIC50, pKd: −log10 of the molar value. Where two headings read alike, the source gives them in different places.

Assays:
[1] = target: GDP-bound NRAS wild-type protein (Homo sapiens, UniProt P01111); assay: Binding to NRAS by surface plasmon resonance (SPR), KD and KD ratio to KRAS
Summary of the method: (§1)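 Recombinant RAS proteins bearing a biotinylated Avi tag and loaded with GDP served as the captured ligand, recaptured fresh every cycle. Binding responses were referenced to an uncoated surface and a buffer-only blank cycle. Dissociation constants were obtained by 1:1 model fitting at 30°C.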

[2] = test system: human lung cancer strain NCI-H441; assay: NCI-H441 cell proliferation inhibitory activity (CellTiter-Glo, 4 days); assay type: cell-based; settings: read-out: NCl-H441 IC50
Summary of the method: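 Signal came from […] measured per well once the reagent was added. Beforehand, cells were cultured at 37°C and 5% carbon dioxide on a compound series serially diluted in dimethyl sulfoxide.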

[3] = target: HRAS wild-type protein (Homo sapiens, UniProt P01112); assay: Binding to HRAS by surface plasmon resonance (SPR), KD and KD ratio to KRAS
Summary of the method: as §1

[4] = target: GDP-bound KRAS wild-type protein (Homo sapiens, UniProt P01116); assay: Binding to KRAS by surface plasmon resonance (SPR), dissociation constant KD
Summary of the method: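 Measured at 30°C: SPR with GDP-loaded, E. coli-expressed biotin-Avi RAS captured (~100–300 RU), ascending 75 s compound injections, HBS pH 7.4 with GDP, MgCl2, 4% DMSO. KD from 1:1 fit.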

[5] = ratio of KD for GDP-bound NRAS wild-type protein to KD for KRAS
[6] = ratio of KD for HRAS wild-type protein to KD for KRAS
[7] = ratio of KD with respect to GDP-bound NRAS wild-type protein to KD with respect to KRAS
[8] = 50% proliferation inhibitory concentration, four days
[9] = ratio of KD with respect to HRAS wild-type protein to KD with respect to KRAS
[10] = Single Cycle Kinetics, 1:1 binding model

GDP-bound KRAS wild-type protein, sequence (P01116 1-188 isoform P01116-2): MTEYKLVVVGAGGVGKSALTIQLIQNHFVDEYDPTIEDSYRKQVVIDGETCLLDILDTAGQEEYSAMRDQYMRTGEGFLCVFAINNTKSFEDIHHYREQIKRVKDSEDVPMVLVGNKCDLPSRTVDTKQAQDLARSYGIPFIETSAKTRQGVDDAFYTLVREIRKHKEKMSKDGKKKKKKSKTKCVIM
HRAS wild-type protein, sequence (P01112 whole entry): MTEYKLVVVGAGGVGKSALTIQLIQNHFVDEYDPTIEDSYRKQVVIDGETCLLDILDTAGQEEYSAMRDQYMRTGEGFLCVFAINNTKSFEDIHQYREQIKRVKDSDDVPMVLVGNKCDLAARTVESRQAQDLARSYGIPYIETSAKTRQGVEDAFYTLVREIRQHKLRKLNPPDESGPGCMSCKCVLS
GDP-bound NRAS wild-type protein, sequence (P01111 whole entry): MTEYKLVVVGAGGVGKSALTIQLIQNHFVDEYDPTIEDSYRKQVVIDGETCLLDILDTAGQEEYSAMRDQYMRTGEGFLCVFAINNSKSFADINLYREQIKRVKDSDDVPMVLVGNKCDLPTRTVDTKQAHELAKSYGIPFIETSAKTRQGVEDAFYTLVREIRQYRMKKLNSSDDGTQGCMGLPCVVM

pIC50 ([2]; NCI-H441 cells, 4 days) | pKd ([4]; Single Cycle Kinetics) | pKd ([4]; 1:1 binding model) | pIC50 [2, 8] | pKd [4, 10] | Structure (SMILES) | NRAS /KRAS [1, 5] | HRAS /KRAS [3, 6] | NRAS /KRAS [1, 7] | HRAS /KRAS [3, 9]
7.38 | 9.09 |  |  |  | CCO[C@@H]1C[C@H]2C(=O)NC3(CC(C)(C)C3)C(=O)N(C)[C@@H](C3CCCC3)C(=O)N(C)[C@H](C(=O)N(C)CC)CC(=O)N(C)[C@@H]([C@H](C)OC)C(=O)N[C@@H]([C@@H](C)CC)C(=O)N(C3CC3)CC(=O)N(C)[C@H]3C/C=C\CCN(C3=O)[C@@H](Cc3ccc(C)cc3)C(=O)N(C)CC(=O)N[C@@H](CCc3ccc(C(F)(F)F)c(OC)c3)C(=O)N2C1 [PP3228] | A (a compound having 10 or more and less than 20 is denoted as A) | A (a compound having 10 or more and less than 20 is denoted as A) |  | 
8.28 |  | 9.92 |  |  | CCOC[C@H]1C(=O)N[C@@H]([C@@H](C)CC)C(=O)N(C)CC(=O)N(C)[C@H]2C/C=C\CCN(C2=O)[C@@H](Cc2ccc(C(F)(F)F)cc2)C(=O)N(C)CC(=O)N[C@@H](CCc2ccc(C(F)(F)F)c(OC)c2)C(=O)N2C[C@H](OCC)C[C@H]2C(=O)N(C)C2(CCC2)C(=O)N(C)[C@@H](C(CC)CC)C(=O)N(C)[C@H](C(=O)N(C)C)CC(=O)N1C [PP2383] | A (a compound having 10 or more and less than 20 is denoted as A) | A (a compound having 10 or more and less than 20 is denoted as A) |  | 
7.82 |  | 9.80 |  |  | CCCOC[C@H]1C(=O)N[C@@H]([C@@H](C)CC)C(=O)N(C)CC(=O)N(C)[C@H]2C/C=C\CCN(C2=O)[C@@H](Cc2ccc(C)cc2)C(=O)N(C)CC(=O)N[C@@H](CCc2cc(F)c(C(F)(F)F)c(F)c2)C(=O)N2C[C@@H](C)C[C@H]2C(=O)NC2(CC(C)(C)C2)C(=O)N(C)[C@@H](C2CCCC2)C(=O)N(C)[C@H](C(=O)N(C)CC)CC(=O)N1C [PP2471] | A (a compound having 10 or more and less than 20 is denoted as A) | A (a compound having 10 or more and less than 20 is denoted as A) |  | 
8.41 | 10.55 |  |  |  | C#CC[C@H]1C(=O)N[C@@H]([C@@H](C)CC)C(=O)N(C)CC(=O)N(C)[C@H]2C/C=C\CCN(C2=O)[C@@H](Cc2ccc(C)cc2)C(=O)N(C)CC(=O)N[C@@H](CCc2ccc(C(F)(F)F)c(OC)c2)C(=O)N2C[C@H](OCC)C[C@H]2C(=O)N(C)C2(CCC2)C(=O)N(C)[C@@H](C2CCCC2)C(=O)N(C)[C@H](C(=O)N(C)C)CC(=O)N1C [PP3236] | A (a compound having 10 or more and less than 20 is denoted as A) | B (a compound having 3 or more and less than 10 is denoted as B) |  | 
8.12 | 9.59 |  |  |  | CCC[C@H]1C(=O)N[C@@H]([C@@H](C)CC)C(=O)N2CCC[C@H]2C(=O)N(C)[C@H]2C/C=C\CCN(C2=O)[C@@H](Cc2ccc(C(F)(F)F)cc2)C(=O)N(C)CC(=O)N[C@@H](CCc2cc(F)c(C(F)(F)F)c(F)c2)C(=O)N2CC[C@H](OC)[C@H]2C(=O)N(C)C2(CCC2)C(=O)N(C)[C@@H](C2CCCC2)C(=O)N(C)[C@H](C(=O)N(C)C)CC(=O)N1C [PP3283] | A (a compound having 10 or more and less than 20 is denoted as A) | A (a compound having 10 or more and less than 20 is denoted as A) |  | 
7.48 |  | 8.85 |  |  | CCCOC[C@H]1C(=O)N[C@@H]([C@@H](C)CC)C(=O)N2CCC[C@H]2C(=O)N(C)[C@H]2C/C=C\CCN(C2=O)[C@@H](Cc2ccc(C)cc2)C(=O)N(C)CC(=O)N[C@@H](CCc2cc(F)c(C(F)(F)F)c(F)c2)C(=O)N2C[C@H](C)C[C@H]2C(=O)NC2(CC(C)(C)C2)C(=O)N(C)[C@@H](C2CCCC2)C(=O)N(C)[C@H](C(=O)N(C)CC)CC(=O)N1C [PP2430] | AA (a compound having 20 or more is denoted as AA) | A (a compound having 10 or more and less than 20 is denoted as A) |  | 
 |  |  | 8.43 | 10.00 | CCO[C@@H]1C[C@H]2C(=O)NC3(CCCC3)C(=O)N(C)[C@@H](C3CCCC3)C(=O)N(C)[C@H](C(=O)N3CCOCC3)CC(=O)N(C)[C@@H](CC)C(=O)N[C@@H]([C@@H](C)CC)C(=O)N(C)CC(=O)N(C)[C@H]3C[C@@H](C)[C@@H](C)CN(C3=O)[C@@H](Cc3ccc(C(F)(F)F)cc3)C(=O)N(C)CC(=O)N[C@@H](CCc3cc(F)c(C(F)(F)F)c(F)c3)C(=O)N2C1 [PP1353] |  |  | A (a compound having 10 or more and less than 20 is denoted as A) | B (a compound having 3 or more and less than 10 is denoted as B)
7.57 |  | 8.85 |  |  | CCC(CC)[C@H]1C(=O)N(C)[C@H](C(=O)N(C)C)CC(=O)N(C)[C@@H](COC)C(=O)N[C@@H]([C@@H](C)CC)C(=O)N(C)CC(=O)N(C)[C@H]2C/C=C\CCN(C2=O)[C@@H](CC2CCC(F)(F)CC2)C(=O)N(C)CC(=O)N[C@@H](CCc2cc(F)c(C(F)(F)F)c(F)c2)C(=O)N2C[C@@H](C)C[C@H]2C(=O)NC2(CC(C)(C)C2)C(=O)N1C [PP2448] | A (a compound having 10 or more and less than 20 is denoted as A) | A (a compound having 10 or more and less than 20 is denoted as A) |  | 
 |  |  | 7.69 | 9.62 | CCO[C@@H]1C[C@H]2C(=O)NC3(CCC3)C(=O)N(C)[C@@H](C3CCCC3)C(=O)N(C)[C@H](C(=O)N3CCCC3)CC(=O)N(C)[C@@H](CC3CCC3)C(=O)N[C@@H]([C@@H](C)CC)C(=O)N(C)CC(=O)N(C)[C@H]3C/C=C\CCN(C3=O)[C@@H](Cc3ccc(C)cc3)C(=O)N(C)CC(=O)N[C@@H](CCc3cc(F)c(C(F)(F)F)c(F)c3)C(=O)N2C1 [PP1425] |  |  | A (a compound having 10 or more and less than 20 is denoted as A) | B (a compound having 3 or more and less than 10 is denoted as B)
 |  |  | 7.49 | 9.70 | CCO[C@@H]1C[C@H]2C(=O)NC3(CCC3)C(=O)N(C)[C@@H](C3CCCC3)C(=O)N(C)[C@H](C(=O)N(C)C)CC(=O)N(C)[C@@H](CC3CC3)C(=O)N[C@@H]([C@@H](C)CC)C(=O)N(C)CC(=O)N(C)[C@H]3C/C=C\CCN(C3=O)[C@@H](CC3CCCCC3)C(=O)N(C)CC(=O)N[C@@H](CCc3cc(F)c(C(F)(F)F)c(F)c3)C(=O)N2C1 [PP1446] |  |  | A (a compound having 10 or more and less than 20 is denoted as A) | A (a compound having 10 or more and less than 20 is denoted as A)
8.38 | 10.23 |  |  |  | CCC[C@H]1C(=O)N[C@@H]([C@@H](C)CC)C(=O)N(C)CC(=O)N(C)[C@H]2C/C=C\CCN(C2=O)[C@@H](Cc2ccc(C)cc2)C(=O)N(C)CC(=O)N[C@@H](CCc2ccc(C(F)(F)F)c(OC)c2)C(=O)N2CC[C@H](OC)[C@H]2C(=O)N(C)C2(CCC2)C(=O)N(C)[C@@H](C2CCCC2)C(=O)N(C)[C@H](C(=O)N(C)C)CC(=O)N1C [PP3249] | A (a compound having 10 or more and less than 20 is denoted as A) | B (a compound having 3 or more and less than 10 is denoted as B) |  | 
7.77 | 8.82 |  |  |  | C#CC[C@H]1C(=O)N[C@@H]([C@@H](C)CC)C(=O)N(C2CC2)CC(=O)N(C)[C@H]2C/C=C\CCN(C2=O)[C@@H](Cc2ccc(C(F)(F)F)cc2)C(=O)N(C)CC(=O)N[C@@H](CCc2ccc(C(F)(F)F)c(OC)c2)C(=O)N2C[C@H](OCC)C[C@H]2C(=O)OC2(CCC2)C(=O)N(C)[C@@H](C2CCCC2)C(=O)N(C)[C@H](C(=O)N(C)C)CC(=O)N1C [PP3372] | A (a compound having 10 or more and less than 20 is denoted as A) | B (a compound having 3 or more and less than 10 is denoted as B) |  | 
